# What was measured:
# Mycobacterium kansasii = experiment: Antimycobacterial activity against Mycobacterium kansasii assessed as microbial growth reduction; assay type: functional
# [1] = tested on: Mycobacterium intracellulare; experiment: Antimycobacterial activity against Mycobacterium intracellulare assessed as microbial growth reduction; assay type: functional
# Mycobacterium avium = experiment: Antimycobacterial activity against Mycobacterium avium assessed as microbial growth reduction; assay type: functional
# [2] = tested on: Mycolicibacterium smegmatis; experiment: Antibacterial activity against Mycobacterium smegmatis SANK75075 assessed as bacterial growth inhibition; assay type: functional
# [3] = molecular target: T1, Phospho-N-acetylmuramoyl-pentapeptide-transferase (Escherichia coli K-12, UniProt P0A6W3); experiment: Inhibition of MraY in Escherichia coli K12
# T1 sequence (P0A6W3 whole entry): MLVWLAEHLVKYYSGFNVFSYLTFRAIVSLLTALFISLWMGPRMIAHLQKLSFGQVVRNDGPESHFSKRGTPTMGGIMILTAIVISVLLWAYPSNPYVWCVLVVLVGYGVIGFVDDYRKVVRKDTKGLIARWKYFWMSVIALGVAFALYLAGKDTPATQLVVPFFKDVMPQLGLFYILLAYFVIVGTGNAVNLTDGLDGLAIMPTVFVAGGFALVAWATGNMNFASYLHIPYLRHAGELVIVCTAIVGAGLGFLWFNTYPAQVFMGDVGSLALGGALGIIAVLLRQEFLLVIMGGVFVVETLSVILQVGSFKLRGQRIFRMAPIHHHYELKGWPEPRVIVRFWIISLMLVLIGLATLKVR
# Escherichia coli = experiment: Antibacterial activity against Escherichia coli ATCC 25922 assessed as bacterial growth inhibition measured after 48 hrs by microdilution method; assay type: functional
# Candida albicans = experiment: Antifungal activity against Candida albicans SC5314 assessed as reduction in microbial growth inhibition incubated for 48 hrs by broth microdilution assay; assay type: functional
# [4] = tested on: Cutaneotrichosporon cutaneum; experiment: Antifungal activity against Trichosporon cutaneum 3071 assessed as reduction in microbial growth inhibition for 48 hrs by broth microdilution assay; assay type: functional
# Coccidioides immitis = experiment: Antifungal activity against Coccidioides immitis assessed as reduction in fungal growth; assay type: functional
# Cryptococcus neoformans = experiment: Antifungal activity against Cryptococcus neoformans assessed as reduction in fungal growth; assay type: functional
# Pseudomonas aeruginosa = experiment: Antibacterial activity against Pseudomonas aeruginosa assessed as bacterial growth reduction; assay type: functional
# Staphylococcus aureus = experiment: Antibacterial activity against methicillin-resistant Staphylococcus aureus SR3637 assessed as reduction in bacterial growth inhibition; assay type: functional
structure (smiles),measurement,setting,value
CCCCCCCCCCCCCCC(=O)O[C@@H]1[C@H](OC)[C@@H]([C@@H](O[C@@H]2OC(C(=O)N[C@H]3CCC[C@@H](C)NC3=O)=C[C@@H](O)[C@H]2O)C(N)=O)O[C@H]1n1ccc(=O)[nH]c1=O,MIC,Mycobacterium kansasii,0.063 µg/mL
same,MIC,[1],0.063 µg/mL
same,MIC,Mycobacterium avium,0.063 µg/mL
CCCCCCCCCC(=O)O[C@@H]1[C@H](OC)[C@@H]([C@@H](O[C@@H]2OC(C(=O)N[C@H]3CCC[C@@H](C)NC3=O)=C[C@@H](O)[C@H]2O)C(N)=O)O[C@H]1n1ccc(=O)[nH]c1=O,MIC,Mycobacterium kansasii,0.063 µg/mL
same,MIC,[1],0.063 µg/mL
same,MIC,Mycobacterium avium,0.063 µg/mL
CO[C@H]1[C@@H](O)[C@H](n2ccc(=O)[nH]c2=O)O[C@@H]1[C@@H](O[C@@H]1OC(C(=O)Nc2ccccc2)=C[C@@H](O)[C@H]1O)C(N)=O,MIC,[2],6.25 µg/mL
CCCCCCCCCNC[C@@H](O[C@@H]1O[C@H](CN)[C@@H](O)[C@H]1O)[C@H]1O[C@@H](n2ccc(=O)[nH]c2=O)[C@H](O)[C@@H]1O,IC50,[3],330 nM
same,MIC,Escherichia coli,2.5 µg/mL
C/C=C1\CN(C(=O)[C@@H](NC(=O)[C@@H](N)[C@H](O)[C@@H](O)COC(N)=O)[C@H]2O[C@@H](n3cc(CO)c(=O)[nH]c3=O)[C@H](O)[C@@H]2O)[C@H]1C(=O)O,MIC,Candida albicans,> 256 µg/mL
same,MIC,[4],256 µg/mL
CSCC[C@H](N)C(=O)N[C@H](C(=O)O)[C@@H]1C[C@@H](O)[C@@H](O)[C@H](n2ccc(=O)[nH]c2=O)O1,MIC,Coccidioides immitis,0.25 µg/mL
same,MIC,Cryptococcus neoformans,0.25 µg/mL
CCCCCCCCCCCNC(=O)C1=C[C@@H](O)[C@@H](O)[C@H](O[C@@H](C(N)=O)[C@H]2O[C@@H](n3ccc(=O)[nH]c3=O)[C@H](O)[C@@H]2OC)O1,MIC,[2],12.5 µg/mL
NC(=O)OC[C@H](O)[C@@H](O)[C@H](N)C(=O)N[C@H](C(=O)NC(CCC(=O)O)C(=O)O)[C@H]1O[C@@H](n2ccc(=O)[nH]c2=O)[C@H](O)[C@@H]1O (stereo partly specified),MIC,Candida albicans,> 256 µg/mL
same,MIC,[4],256 µg/mL
C[C@@H]([C@H](NC(=O)[C@H](Cc1ccccc1)NC(=O)N[C@@H](Cc1c[nH]c2ccccc12)C(=O)O)C(=O)NCC1C[C@@H](O)[C@H](n2ccc(=O)[nH]c2=O)O1)N(C)C(=O)[C@@H](N)Cc1ccc(O)cc1 (stereo partly specified),MIC,Pseudomonas aeruginosa,16 µg/mL
CCCCNC(=O)C1=C[C@@H](O)[C@@H](O)[C@H](O[C@@H](C(N)=O)[C@H]2O[C@@H](n3ccc(=O)[nH]c3=O)[C@H](O)[C@@H]2OC)O1,MIC,[2],12.5 µg/mL
CCCCCCCCCCCCCC[C@@H](NC(=O)C(C)CCCNC(=N)N)C(=O)NC[C@@H]1C[C@H]2[C@@H](C(=O)N1)[C@@H]([C@H]1O[C@@H](n3ccc(=O)[nH]c3=O)[C@H](O)[C@@H]1O)ON2CCCN (stereo partly specified),MIC,Staphylococcus aureus,8 µg/mL
CO[C@H]1[C@@H](O)[C@H](n2ccc(=O)[nH]c2=O)O[C@@H]1[C@@H](O[C@@H]1OC(C(=O)NCCCSC)=C[C@@H](O)[C@H]1O)C(N)=O,MIC,[2],12.5 µg/mL
CCCCCCCCCNC(=O)C1=C[C@@H](O)[C@@H](O)[C@H](O[C@@H](C(N)=O)[C@H]2O[C@@H](n3ccc(=O)[nH]c3=O)[C@H](O)[C@@H]2OC)O1,MIC,[2],12.5 µg/mL
CCCCCCCNC[C@@H](O[C@@H]1O[C@H](CN)[C@@H](O)[C@H]1O)[C@H]1O[C@@H](n2ccc(=O)[nH]c2=O)[C@H](O)[C@@H]1O,IC50,[3],330 nM
same,MIC,Escherichia coli,2.5 µg/mL
CCCCCCCCCCCNC[C@@H](O[C@@H]1O[C@H](CN)[C@@H](O)[C@H]1O)[C@H]1O[C@@H](n2ccc(=O)[nH]c2=O)[C@H](O)[C@@H]1O,IC50,[3],330 nM
same,MIC,Escherichia coli,2.5 µg/mL
CCCCCCCCCCCC(=O)O[C@@H]1[C@H](OC)[C@@H]([C@@H](O[C@@H]2OC(C(=O)N[C@H]3CCC[C@@H](C)NC3=O)=C[C@@H](O)[C@H]2O)C(N)=O)O[C@H]1n1ccc(=O)[nH]c1=O,MIC,Mycobacterium kansasii,0.063 µg/mL
same,MIC,[1],0.063 µg/mL
same,MIC,Mycobacterium avium,0.063 µg/mL
CC(C)C[C@H](NC(=O)N[C@@H](Cc1ccc(O)cc1)C(=O)O)C(=O)N[C@H](C(=O)NCC1C[C@@H](O)[C@H](n2ccc(=O)[nH]c2=O)O1)[C@H](C)N(C)C(=O)[C@H](C)N (stereo partly specified),MIC,Pseudomonas aeruginosa,16 µg/mL
NC(=O)OC[C@H](O)[C@@H](O)[C@H](N)C(=O)N[C@H](C(=O)NC(CCC(=O)O)C(=O)O)[C@H]1O[C@@H](n2cc(C=O)[nH]c2=O)[C@H](O)[C@@H]1O (stereo partly specified),MIC,Candida albicans,> 256 µg/mL
same,MIC,[4],256 µg/mL

# Source: ChEMBL document CHEMBL5257035, “Nucleoside Derived Antibiotics to Fight Microbial Drug Resistance: New Utilities for an Established Class of Drugs?” (J Med Chem, 2016)
